The NIST ThermoML archive (doi:10.1021/je300737t)
± gives the expanded uncertainty stated by the source.

Key:
[1] = 101 kPa, Liquid; for mass density: Pycnometric method
[2] = xn = mol fraction of the nth substance listed; settings: 101 kPa, Liquid; for mass density: Pycnometric method

CCCCOCCO [2-butoxyethan-1-ol]
[1]
Settings	mass density [kg/m3]	viscosity [mPa·s]
298.15 K	896.16 ± 1	2.782 ± 0.065
303.15 K	892.74 ± 1	2.499 ± 0.059
308.15 K	888.88 ± 1	2.206 ± 0.053
313.15 K	884.29 ± 1	1.946 ± 0.048

CCCCOCCO [2-butoxyethan-1-ol] + O
[2]
Settings	mass density, 298.15 K [kg/m3]	mass density, 303.15 K [kg/m3]	mass density, 308.15 K [kg/m3]	mass density, 313.15 K [kg/m3]	viscosity, 298.15 K [mPa·s]	viscosity, 303.15 K [mPa·s]	viscosity, 308.15 K [mPa·s]	viscosity, 313.15 K [mPa·s]
x1 = 0.017	993.26 ± 3	990.82 ± 3	988.89 ± 3	985.94 ± 3	1.284 ± 0.035	1.131 ± 0.033	0.9936 ± 0.03	0.8871 ± 0.029
x1 = 0.037	986.46 ± 3	982.92 ± 3	980.38 ± 3	977.64 ± 3	1.849 ± 0.045	1.622 ± 0.041	1.465 ± 0.038	1.302 ± 0.036
x1 = 0.061	976.33 ± 3	974.23 ± 3	971.37 ± 3	968.64 ± 3	2.45 ± 0.056	2.161 ± 0.051	1.916 ± 0.046	1.754 ± 0.043
x1 = 0.092	967.1 ± 3	964.31 ± 3	961.45 ± 3	958.48 ± 3	2.998 ± 0.069	2.635 ± 0.061	2.334 ± 0.054	2.054 ± 0.049
x1 = 0.132	948.1 ± 10	944.74 ± 10	941.59 ± 10	937.57 ± 10	3.918 ± 0.089	3.394 ± 0.078	2.921 ± 0.068	2.539 ± 0.059
x1 = 1	896.16 ± 1	892.74 ± 1	888.88 ± 1	884.29 ± 1	2.782 ± 0.065	2.499 ± 0.059	2.206 ± 0.053	1.946 ± 0.048
